The source of these data is patent US10670605B2, “Cysteine reactive probes and uses thereof” (The Scripps Research Institute, priority 2015, dated 2020).

Common to all, as to assay: Competitive isoTOP-ABPP in situ (fragment-treated cells)
Common to all, as to assay type: cell-based

Experiment [1] has as its target T1, cysteines in MDA-MB-231 and Ramos cells (Homo sapiens, UniProt Q7Z5K2).
T1 sequence (Q7Z5K2 1-1190): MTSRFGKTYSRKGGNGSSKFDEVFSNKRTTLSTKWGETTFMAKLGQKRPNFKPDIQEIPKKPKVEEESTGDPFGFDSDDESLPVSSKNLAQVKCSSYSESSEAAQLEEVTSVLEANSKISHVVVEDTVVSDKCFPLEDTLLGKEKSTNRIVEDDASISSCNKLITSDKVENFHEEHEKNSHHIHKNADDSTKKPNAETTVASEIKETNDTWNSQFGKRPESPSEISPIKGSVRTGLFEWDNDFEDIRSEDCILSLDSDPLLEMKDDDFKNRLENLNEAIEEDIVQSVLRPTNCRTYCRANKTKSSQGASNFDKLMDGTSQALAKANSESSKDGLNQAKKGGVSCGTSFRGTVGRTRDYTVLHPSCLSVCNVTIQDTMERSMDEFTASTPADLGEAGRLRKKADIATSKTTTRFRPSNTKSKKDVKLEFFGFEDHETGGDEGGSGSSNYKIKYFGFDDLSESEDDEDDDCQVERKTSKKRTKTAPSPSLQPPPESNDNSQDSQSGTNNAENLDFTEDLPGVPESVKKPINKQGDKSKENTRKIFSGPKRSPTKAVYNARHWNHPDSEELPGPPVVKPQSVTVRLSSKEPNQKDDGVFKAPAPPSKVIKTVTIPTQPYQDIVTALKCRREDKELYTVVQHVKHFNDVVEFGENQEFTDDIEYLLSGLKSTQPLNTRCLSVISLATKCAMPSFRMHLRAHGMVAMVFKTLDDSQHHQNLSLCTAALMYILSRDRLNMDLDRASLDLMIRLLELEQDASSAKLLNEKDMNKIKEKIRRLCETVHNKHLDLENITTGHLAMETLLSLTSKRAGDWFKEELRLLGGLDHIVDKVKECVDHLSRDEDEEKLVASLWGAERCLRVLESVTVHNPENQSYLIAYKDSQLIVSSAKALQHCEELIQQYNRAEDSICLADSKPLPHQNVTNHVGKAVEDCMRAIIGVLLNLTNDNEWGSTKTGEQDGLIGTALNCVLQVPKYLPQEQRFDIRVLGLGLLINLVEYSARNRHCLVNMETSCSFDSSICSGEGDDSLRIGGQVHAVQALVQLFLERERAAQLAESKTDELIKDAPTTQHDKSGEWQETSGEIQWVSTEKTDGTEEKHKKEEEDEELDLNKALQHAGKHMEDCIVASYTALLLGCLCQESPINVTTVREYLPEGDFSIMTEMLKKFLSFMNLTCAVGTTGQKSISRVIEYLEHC

Experiment [2] addresses cysteines in MDA-MB-231 and Ramos cells (Homo sapiens, UniProt Q00610). Conditions: 200 μM, insitu, 231.
Experiment [3] concerns the target cysteines in MDA-MB-231 and Ramos cells (Homo sapiens, UniProt Q9Y5T5). To be noted: 200 μM, insitu.
In experiment [4] the target is T2, cysteines in MDA-MB-231 and Ramos cells (Homo sapiens, UniProt Q9BR61).
T2 sequence (Q9BR61 1-282): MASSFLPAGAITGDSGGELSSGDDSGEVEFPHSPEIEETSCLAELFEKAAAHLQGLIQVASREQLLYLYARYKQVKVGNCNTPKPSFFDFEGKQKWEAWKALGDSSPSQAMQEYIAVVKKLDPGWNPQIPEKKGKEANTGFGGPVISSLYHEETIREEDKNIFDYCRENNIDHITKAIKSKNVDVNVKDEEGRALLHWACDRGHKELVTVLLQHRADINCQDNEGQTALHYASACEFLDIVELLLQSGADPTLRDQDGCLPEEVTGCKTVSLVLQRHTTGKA
To be noted: 200 μM, insitu.

Experiment [5] concerns the target T3, cysteines in MDA-MB-231 and Ramos cells (Homo sapiens, UniProt Q8IZ73).
T3 sequence (Q8IZ73 1-545): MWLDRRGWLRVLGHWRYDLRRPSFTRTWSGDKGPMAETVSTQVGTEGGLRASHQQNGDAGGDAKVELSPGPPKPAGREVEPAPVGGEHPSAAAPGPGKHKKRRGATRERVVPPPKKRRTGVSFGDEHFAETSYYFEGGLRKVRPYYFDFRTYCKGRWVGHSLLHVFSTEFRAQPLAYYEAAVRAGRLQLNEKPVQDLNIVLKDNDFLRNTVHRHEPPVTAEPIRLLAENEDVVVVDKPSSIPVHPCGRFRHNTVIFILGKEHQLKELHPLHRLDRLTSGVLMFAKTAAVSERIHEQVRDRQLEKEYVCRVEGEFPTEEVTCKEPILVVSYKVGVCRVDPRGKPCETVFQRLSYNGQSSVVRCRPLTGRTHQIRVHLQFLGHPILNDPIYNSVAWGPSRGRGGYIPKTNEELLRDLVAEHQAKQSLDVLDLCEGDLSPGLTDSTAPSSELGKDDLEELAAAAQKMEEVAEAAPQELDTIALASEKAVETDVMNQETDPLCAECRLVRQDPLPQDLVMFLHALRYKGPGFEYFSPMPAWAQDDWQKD
Conditions: 200 μM, insitu.

cysteines in MDA-MB-231 and Ramos cells (Homo sapiens, UniProt Q9Y5T5), sequence (Q9Y5T5 whole entry): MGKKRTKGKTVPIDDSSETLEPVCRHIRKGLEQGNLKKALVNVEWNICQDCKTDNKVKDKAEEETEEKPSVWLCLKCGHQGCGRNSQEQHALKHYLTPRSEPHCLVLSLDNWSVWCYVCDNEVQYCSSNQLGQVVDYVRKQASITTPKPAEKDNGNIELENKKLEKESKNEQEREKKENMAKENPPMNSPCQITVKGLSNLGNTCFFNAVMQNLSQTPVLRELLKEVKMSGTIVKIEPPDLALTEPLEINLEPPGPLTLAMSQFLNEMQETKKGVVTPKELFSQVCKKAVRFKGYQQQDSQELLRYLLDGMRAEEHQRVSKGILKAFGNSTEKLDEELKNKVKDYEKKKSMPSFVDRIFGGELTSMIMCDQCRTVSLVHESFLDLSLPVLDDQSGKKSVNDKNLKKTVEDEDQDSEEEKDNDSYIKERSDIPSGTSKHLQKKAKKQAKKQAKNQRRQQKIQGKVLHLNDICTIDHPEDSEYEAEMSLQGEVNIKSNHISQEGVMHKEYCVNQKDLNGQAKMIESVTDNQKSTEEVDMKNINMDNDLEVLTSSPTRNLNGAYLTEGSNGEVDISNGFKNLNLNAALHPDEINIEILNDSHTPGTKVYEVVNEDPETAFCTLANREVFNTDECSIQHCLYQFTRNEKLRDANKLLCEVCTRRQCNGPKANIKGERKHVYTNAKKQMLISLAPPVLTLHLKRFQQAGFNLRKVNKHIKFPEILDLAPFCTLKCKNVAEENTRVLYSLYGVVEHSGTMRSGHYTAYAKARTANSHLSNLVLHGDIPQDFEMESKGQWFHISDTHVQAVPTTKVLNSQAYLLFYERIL
cysteines in MDA-MB-231 and Ramos cells (Homo sapiens, UniProt Q00610), sequence (Q00610 whole entry): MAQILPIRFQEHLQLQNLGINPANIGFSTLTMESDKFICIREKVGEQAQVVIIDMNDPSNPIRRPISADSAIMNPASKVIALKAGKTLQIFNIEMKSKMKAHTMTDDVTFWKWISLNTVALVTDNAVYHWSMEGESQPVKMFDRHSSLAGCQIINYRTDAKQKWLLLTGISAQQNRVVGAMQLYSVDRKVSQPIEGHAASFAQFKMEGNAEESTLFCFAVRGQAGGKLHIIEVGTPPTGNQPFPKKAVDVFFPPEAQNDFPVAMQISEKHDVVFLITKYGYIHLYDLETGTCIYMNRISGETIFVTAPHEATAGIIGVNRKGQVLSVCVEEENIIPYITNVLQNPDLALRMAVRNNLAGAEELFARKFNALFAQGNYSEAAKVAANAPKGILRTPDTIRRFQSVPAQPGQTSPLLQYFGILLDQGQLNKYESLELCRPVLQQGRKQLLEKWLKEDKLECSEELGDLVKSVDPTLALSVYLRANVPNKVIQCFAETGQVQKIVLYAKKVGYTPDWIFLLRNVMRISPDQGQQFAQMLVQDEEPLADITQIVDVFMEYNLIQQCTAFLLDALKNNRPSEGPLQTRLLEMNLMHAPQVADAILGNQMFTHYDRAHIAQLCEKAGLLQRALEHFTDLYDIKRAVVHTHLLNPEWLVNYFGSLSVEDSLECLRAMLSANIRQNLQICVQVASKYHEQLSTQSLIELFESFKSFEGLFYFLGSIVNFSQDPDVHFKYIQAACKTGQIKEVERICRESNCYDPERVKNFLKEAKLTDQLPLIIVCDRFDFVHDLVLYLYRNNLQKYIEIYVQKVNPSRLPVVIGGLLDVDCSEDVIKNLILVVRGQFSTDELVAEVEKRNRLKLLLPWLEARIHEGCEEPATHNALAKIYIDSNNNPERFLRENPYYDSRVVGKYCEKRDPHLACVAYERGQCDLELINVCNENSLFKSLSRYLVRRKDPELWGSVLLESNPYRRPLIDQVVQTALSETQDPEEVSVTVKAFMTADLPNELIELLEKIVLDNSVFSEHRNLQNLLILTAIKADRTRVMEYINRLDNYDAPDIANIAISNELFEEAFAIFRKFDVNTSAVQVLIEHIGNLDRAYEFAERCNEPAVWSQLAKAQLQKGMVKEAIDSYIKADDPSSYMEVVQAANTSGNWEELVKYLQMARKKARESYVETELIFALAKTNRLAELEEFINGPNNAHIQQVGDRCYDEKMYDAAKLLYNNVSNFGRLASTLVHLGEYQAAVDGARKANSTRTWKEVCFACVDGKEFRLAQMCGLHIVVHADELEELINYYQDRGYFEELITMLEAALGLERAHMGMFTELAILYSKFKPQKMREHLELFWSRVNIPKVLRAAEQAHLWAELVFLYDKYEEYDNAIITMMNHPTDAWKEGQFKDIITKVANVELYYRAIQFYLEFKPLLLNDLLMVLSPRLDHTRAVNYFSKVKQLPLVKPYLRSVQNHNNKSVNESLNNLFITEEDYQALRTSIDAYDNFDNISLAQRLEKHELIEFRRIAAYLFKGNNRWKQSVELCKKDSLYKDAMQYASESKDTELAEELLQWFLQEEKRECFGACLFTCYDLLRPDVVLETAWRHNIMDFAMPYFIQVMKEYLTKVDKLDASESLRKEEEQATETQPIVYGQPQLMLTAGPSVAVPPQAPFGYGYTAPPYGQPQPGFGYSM

As to `O=C(CCl)N1CCN(S(=O)(=O)c2ccccc2F)CC1` [compound 10], the “isoTOP-ABPP ratio, cysteine Q7Z5K2_C160” value in experiment [1] (200 μM, insitu, 231) was 20.0.
For `Cn1cc(S(=O)(=O)N2CCOCC2)cc1C(=O)NC(=O)CCl` [compound 11], the “isoTOP-ABPP ratio, cysteine Q7Z5K2_C160” value in experiment [1] (100 μM in situ 231) is given as 1.0.
On to `O=C(CCl)NC(=O)NC12CC3CC(CC(C3)C1)C2` [compound 12], for which, in experiment [2], the “isoTOP-ABPP ratio, cysteine Q00610_C870” value was 0.9.
Consider `O=C(CCl)NCCc1c[nH]c2ccccc12` [compound 13], for which, in experiment [2], the “isoTOP-ABPP ratio, cysteine Q00610_C870” value is on record as 1.7. Moreover, the “isoTOP-ABPP ratio, cysteine Q9Y5T5_C205” value in experiment [3] (ramos) is 20.0. The “isoTOP-ABPP ratio, cysteine Q9BR61_C267” value in experiment [4] (231) was determined as 1.1.
On to `O=C(CCl)NC12CC3CC(CC(C3)C1)C2` [compound 21], for which the “isoTOP-ABPP ratio, cysteine Q9Y5T5_C205” value in experiment [3] (231) turned out to be 0.9. The “isoTOP-ABPP ratio, cysteine Q8IZ73_C246” value in experiment [5] (231) amounted to 1.8.
For the compound `CC(C)CCOCCNC(=O)CCl` [compound 27], in experiment [3] (231), the “isoTOP-ABPP ratio, Q9Y5T5_C205” value is listed as 1.2.
For `O=C(CCl)N1CCN(CC(=O)N2CCOCC2)CC1` [compound 29], the “isoTOP-ABPP ratio Q7Z5K2_C160” value in experiment [1] (200 μM, insitu, ramos) is recorded as 0.7. For the same compound, the “isoTOP-ABPP ratio Q9BR61_C267” value in experiment [4] (ramos) turned out to be 2.5.
For `C=CC(=O)N(Cc1cccnc1)c1cc(C(F)(F)F)cc(C(F)(F)F)c1` [compound 31], the “isoTOP-ABPP ratio Q8IZ73_C246” value in experiment [5] (231) worked out at 0.4; in experiment [5] (ramos), 1.0.
Consider `C=CC(=O)Nc1cc(F)c(N2CCN(C(=O)OC(C)(C)C)CC2)c(F)c1` [compound 38], for which the “isoTOP-ABPP ratio Q00610_C870” value in experiment [2] came to 20.0. In experiment [3] (231), the “isoTOP-ABPP ratio, Q9Y5T5_C205” value worked out at 1.5. In experiment [5] (231), the “isoTOP-ABPP ratio Q8IZ73_C246” value came out at 1.7.
For the compound `Cc1ccc(C=C(C#N)C(=O)NCCN2CCOCC2)cc1` [compound 41], the “isoTOP-ABPP ratio Q7Z5K2_C160” value in experiment [1] (200 μM, insitu, 231) came to 1.0. The “isoTOP-ABPP ratio Q9BR61_C267” value in experiment [4] (231) turned out to be 0.5.
